Patent US8906897B2, “Antimicrobial agents based on hemin derivatives” (Obschestvo S Ogranichennoi Otvetstvennostiyu …, priority 2009, dated 2014)

Key:
[1] = system: Bacillus subtilis BKM B-501; assay: Antibacterial activity (MIC/MBC), serial dilutions in liquid MH medium; assay type: cell-based; settings: for MIC: 20 h, MH medium
Experimental: (§1) The antibacterial activity of compounds was determined against Bacillus subtilis BKM B-501, Staphylococcus aureus 209P, Enterococcus faecalis BKM B-871, and Micrococcus luteus BKM Ac-2230 strains (acquired from the All-Russia Collection of Microorganisms at the Institute for Biochemistry and Physiology of Microorganisms, Russian Academy of Sciences). The main parameters characterizing the antibacterial activity are the minimal inhibitory concentration (MIC) and minimal bactericidal concentration (MBC). […] MBC is the least concentration that causes the death of all cells.
(§2) MIC was quantified by inhibiting culture growth in a liquid medium with serial dilutions of compounds using a modified procedure [Amsterdam, D., “Susceptibility Testing of Antimicrobials in Liquid Media,” in Antibiotics in Laboratory Medicine, Ed. by Lorian, V., 4th ed., Baltimore: Williams and Wilkins, 1996, pp. 52-111].
(§3) Bacteria were cultured and tests were carried out on an MH liquid medium (Mueller-Hinton medium: a dry extract of beef broth, 4 g/L; starch, 1.5 g/L; casein hydrolyzate, 17.5 g/L; Sigma-Fluka Catalog No. 70192) at 37° C., 100% humidity, and under stirring. Cultures (4th through 7th receeding post-thawing) in the exponential growth phase were used for tests.
(§4) Therefore, a correction for absorption was applied in estimating the optical density of bacterial suspensions for each compound with account for its concentration in the well.
(§5) The protocol for experimental antibacterial activity determination for tested compounds was as follows. A cryovial with the test strain culture (Bacillus subtilis BKIVI B-501, Staphylococcus aureus 209P, Enterococcus faecalis BKM B-871, or Micrococcus luteus BKIVI Ac-2230) in a medium with 7% DMSO stored in liquid nitrogen, was rapidly defrosted, and 1.5 mL of the fresh MH medium was inoculated with 100 μL of the cell suspension. Cells were grown for one day at 37° C. and stirred on an orbital shaker at 150 rpm. The morphologic features of the strain and the absence of contamination with foreign bacteria were verified by: (a) inoculation on an agarized (15 g/L agar) MH medium and observation of the shape and color of the grown colonies and (b) examination of characteristic morphologic features under a microscope (Mikmed-2, LOMO, Russia) equipped with a 40× objective lens. Further bacteria were cultured in 1 mL of the liquid MH medium at 37° C. under stirring. The cells were reseeded every day. Cell cultures were used in tests starting with 3rd reseeding and ending with 6th one.
(§6) For testing, 5 μL of a bacterial suspension in the stationary growth phase was transferred to 1 mL of a sterile MH medium and incubated until the exponential growth phase was attained (3 to 5 h, 37° C., stirring at 150 rpm). To estimate the microorganisms concentration, the optical density (A) of the resulting bacterial culture was measured at a wavelength of 595 nm. The value of A=0.2 measured from a […] portion of the cell suspension in a 96-well plate, with a correction for the medium absorption applied, was set to correspond to 4×10^8 cells/mL for both strains used. Taking into account the cell concentration measurements, the suspension was diluted with the MH medium to a concentration of from 5×10^4 to 1×10^5 cells/mL and transferred to a sterile 96-well plate in an amount of 100 μL, per well. Then, the cells were added with tested compounds and twofold serial dilutions of these compounds in plate's wells were made.
(§7) The controls used were: 100 μL of an additive-free bacterial culture (four wells); a bacterial culture added with 1% DMSO or water in the same volume as in the wells with the maximal concentration of the tested compounds (four wells); and 100 μL of the sterile MH medium without bacteria and without tested compounds for control of occasional contamination in the plate (four wells).

[2] = system: Enterococcus faecalis BKM B-871; assay: as above; assay type: cell-based; settings: for MIC: 20 h, MH medium
Experimental: as §1, §2, §3, §4, §5, §6, §7

[3] = system: Micrococcus luteus BKM Ac-2230; assay: as above; assay type: cell-based; settings: for MIC: 20 h, MH medium
Experimental: as §1, §2, §3, §4, §5, §6, §7

[4] = system: Staphylococcus aureus 209P; assay: as above; assay type: cell-based; settings: for MIC: 20 h, MH medium
Experimental: as §1, §2, §3, §4, §5, §6, §7

human leukocytes = assay: Cytotoxic activity against human leukocytes; settings: for Death of leukocytes in the presence of 1 mM of compound / concentration at which a weak toxic effect on leukocytes appears: 3 h incubation; for toxic effect on human blood leukocytes (in words): concentrations of up to 1 mM, 3 h
Experimental: Total leukocytes were isolated from human blood by unforced sedimentation using freshly collected venous blood from a healthy donor.
Blood (10 mL) added with 10 units/mL heparin was exposed for 2.5 h in the dark at a temperature of 15 to 18° C. A light-colored liquid supernatant (4 mL) was collected over the layer of sedimenting erythrocytes, washed three times with balanced Hanks's salt solution, and resuspended in the RPMI-1640 medium (added with 8% fetal bovine serum, 2 mM L-glutamine, and 10 mM HEPES; hereinafter, the complete medium).
The concentrations of leukocytes and erythrocytes in the suspension were determined by counts in Goryachev's chamber, after which the suspension was adjusted to a leukocyte concentration of (1.0±0.1)×10^6 cells/mL with the complete medium.
To determine the cytotoxicity of the tested compounds for human leukocytes, the cell suspension was transferred to wells of sterile 96-well plates, tested compounds were added with serial twofold dilutions (the range of tested concentrations was from 3.2 to 100 μM for GrD and gramicidin S; from 8 to 500 μM for compound XIII; and from 8 to 1000 μM for compounds V, VI, VII, VIII, IX, X, XI, XIV, XV, XIX, and Hem), and the mixture was carefully stirred. The experiment was performed in two replicas.
As controls served cells added with an equivalent amount of the solvent in which tested compounds were prepared, namely: water for compounds VII and X; an aqueous solution of DMSO for compounds V, VI, VIII, and IX; and DMSO for GrD, gramicidin S, Hem, XI, XIII, XIV, XV, and XIX. An additional control was an additive-free leukocyte suspension.
Cells were incubated with tested compounds for 3 h (37° C., 5% CO2, 100% humidity). Leukocyte death values were quantified using fluorescence microscopy. Staining with propidium iodide (it permeates only into dead cells nuclei) and Hoechst 33342 (it stains all nuclei) was used to recognize dead and living cells. Cells were incubated for 15 min in plates with propidium iodide and Hoechst 33342 (37° C., 5% CO2), and then the plates were placed under a microscope for analysis.
The dead cell fraction was derived from the fluorescence images of cells obtained in the blue (Hoechst 33342) and red (propidium iodide) spectral ranges using an Axio Observer (Zeiss, Germany) fluorescence microscope equipped with a 10× objective lens (Plan-Neofluar 10×/0.3). The following sets of fluorescence filters were used. For propidium iodide: a 530/585-nm bandpass excitation filter, a 600-nm cut-off dichroic minor, and a 615-nm longpass barrier filter for analysis. For Hoechst 33342: a 359/372-nm bandpass excitation filter, a 395-nm cut-off dichroic mirror, and a 397-nm longpass barrier filter for analysis.
A digital camera recorded three types of cell images: (a) an image in the transmitted white light; (b) a blue fluorescence image obtained with UV excitation, and (c) a red fluorescence image obtained with green light excitation. At least four fields of view were photographed per well in various regions of a well.

Candida albicans No. 927 = assay: Antifungal activity, culture growth with pH indicator; assay type: cell-based; parameters: key to Test culture growth at various dilutions of the agent: (−) No growth; the indicator is blue; (±) Weak growth; the indicator is yellow, but the precipitate of grown cells looks as a diffuse spot; (+) Strong growth; the indicator is yellow, and the cell precipitate looks as a compact spot
Experimental: The subjects of action were Cryptococcus neoformans No. 3465 museum strain cells and Candida albicans No. 927 museum strain cells grown for one day on a glucose-peptone-yeast medium at 32° C. The reference compounds were the following antimycotics: pimafucin, amphotericin, and fluconazole.
Experiments were carried out on round-bottomed 96-well plates (Lenmedpolimer) in two replicas. To the first column (0), added was 10 μL of the stock solution of a water-soluble agent with concentrations of 10^−2 to 10^−3 mol/L; to the second column, added was also the same 10 μL plus 10 μL of the solvent corresponding to the given compound, suspended, 10 μL was transferred to the next well, and so on to the 8th well of the row. Stock solutions of water-insoluble compounds of general formula (I) (compounds V, VIII, XII, XIII, XIV, and hemin) were prepared in DMSO and were diluted with DMSO and the medium. DMSO concentrations in the reaction mixture in a well were ≦5%.
Then, to every well added was 190 μL of a Cr. neoformans cell culture suspension in a synthetic nutritional medium (so that the final cell concentration was approximately 10^3 CFU/mL), this medium containing Bromocresol Blue as a pH-indicator (pH: 5.5; indicator color: blue). As pH reduced to 4.5, the indicator in the culture changed its color to yellow, thereby indicating fungal cell growth. The synthetic medium comprised the following components: salts, amino acids, microelements, vitamins, an antibiotic, and glucose (30 components altogether) [Yarrow, D., “Methods for the Isolation, Maintenance and Identification of Yeasts,” in: The Yeasts. A Taxonomic Study, Ed. by Kurtsman, C. P, and Fell, M., Elsevier, 1998, pp. 77-100]. After being inoculated with a Cr. neoformans cell suspension, the plate was incubated at 32° C. for 1 h with stirring, then transferred to a stationary thermostat and incubated for two and five days at 27° C. After being inoculated with a C. albicans cell suspension, the plates were incubated for 1 h at 32° C. with stirring, then transferred to a stationary thermostat and incubated for one and four days at 27° C.

[5] = Solubility of tested agents (water / DMSO); settings: water or DMSO

Compound: C=CC1=C(C)c2cc3[n-]c(cc4nc(cc5[n-]c(cc1n2)c(C)c5CCC(=O)NCCC(=O)NCCc1c[nH]cn1)C(CCC(=O)NCCC(=O)NCCc1c[nH]cn1)=C4C)c(C)c3C=C.[Cl-].[Fe+3] [IX]
- MBC [1]: 100 ± 25 µM
- MIC [1]: 50 ± 13 µM
- MBC [2]: >400^3 μM
- MIC [2]: 200 µM
- MBC [3]: 25 µM
- MBC [4]: 400 µM
- MIC [4]: 100 µM
- Death of leukocytes in the presence of 1 mM of compound (human leukocytes): 3.1 ± 0.3%
- toxic effect on human blood leukocytes (in words) (human leukocytes): did not cause the death

Compound: 6(7)-Mono(Arg-Gly-Asp)-Protohemin IX [Compound XI]
- MBC [1]: 25 ± 7 µM
- MIC [1]: 12.5 ± 4 µM
- MBC [2]: Not reached
- MIC [2]: 100 µM
- MBC [3]: 200 µM
- MIC [3]: 50 µM
- MBC [4]: Not reached
- MIC [4]: 12.5 µM
- Death of leukocytes in the presence of 1 mM of compound (human leukocytes): 8.6 ± 0.4%
- toxic effect on human blood leukocytes (in words) (human leukocytes): fully due to the toxic effect of the solvent

Compound: C=CC1=C(C)c2cc3[n-]c(cc4nc(cc5[n-]c(cc1n2)c(C)c5CCC(=O)NC(CO)CO)C(CCC(=O)NC(CO)CO)=C4C)c(C)c3C=C.[Cl-].[Fe+3] [Compound XVI, Protohemin IX 6,7-bis-N-(1,3-Dihydroxypropan-2-yl)amide]
- MBC [1]: >200 µM
- MIC [1]: >200 µM
- MBC [2]: >200 µM
- MIC [2]: >200 µM
- MBC [3]: >200 µM
- MIC [3]: >200 µM
- MBC [4]: >200 µM
- MIC [4]: >200 µM

Compound: Protohemin IX 6(7)-Mono[Cyclo(Orn-Leu-D-Phe-Pro-Val)2])amide [Compound XIII]
- Death of leukocytes in the presence of 1 mM of compound (human leukocytes): 14 ± 2%
- Test culture growth at various dilutions of the agent (Candida albicans No. 927; dilution 0: 1 × 10^−4 M): ±
- Test culture growth at various dilutions of the agent (Candida albicans No. 927; dilution : 2 of 1 × 10^−4 M): ±
- Test culture growth at various dilutions of the agent (Candida albicans No. 927; dilution : 4 of 1 × 10^−4 M): +
- Test culture growth at various dilutions of the agent (Candida albicans No. 927; dilution : 8 of 1 × 10^−4 M): +
- Test culture growth at various dilutions of the agent (Candida albicans No. 927; dilution : 16 of 1 × 10^−4 M): +
- Test culture growth at various dilutions of the agent (Candida albicans No. 927; dilution : 32 of 1 × 10^−4 M): +
- Test culture growth at various dilutions of the agent (Candida albicans No. 927; dilution : 64 of 1 × 10^−4 M): +
- solubility (in words) [5]: water-insoluble

Compound: C=CC1=C(C)c2cc3[n-]c(cc4nc(cc5[n-]c(cc1n2)c(C)c5CCC(=O)NCC(=O)OC)C(CCC(=O)NCC(=O)OC)=C4C)c(C)c3C=C.[Cl-].[Fe+3] [Compound XV, 6,7-Bis(N^α-Glycyl Methyl Ester)-Protohemin IX]
- MBC [1]: 25 ± 7 µM
- MIC [1]: 12.5 ± 4 µM
- MBC [3]: 6.5 µM
- MIC [3]: 1.6 µM
- Death of leukocytes in the presence of 1 mM of compound (human leukocytes): 13 ± 1%
- concentration at which a weak toxic effect on leukocytes appears (human leukocytes): ~1000 µM
- solubility (in words) [5]: DMSO-soluble

Compound: C=CC1=C(C)c2cc3[n-]c(cc4nc(cc5[n-]c(cc1n2)c(C)c5CCC(=O)NCC(O)CO)C(CCC(=O)NCC(O)CO)=C4C)c(C)c3C=C.[Cl-].[Fe+3] (stereo not shown) [Compound XVII, Protohemin IX 6,7-bis-N-(2,3-Dihydroxypropyl)amide]
- MBC [1]: >200 µM
- MIC [1]: >200 µM
- MBC [2]: >200 µM
- MIC [2]: >200 µM
- MBC [3]: >200 µM
- MIC [3]: >200 µM
- MBC [4]: >200 µM
- MIC [4]: >200 µM

Compound: C=CC1=C(C)c2cc3[n-]c(cc4nc(cc5[n-]c(cc1n2)c(C)c5CCC(=O)NCCc1c[nH]cn1)C(CCC(=O)NCCc1c[nH]cn1)=C4C)c(C)c3C=C.[Cl-].[Fe+3] [Compound XIX, 6,7-bis-Histaminyl-Protohemin IX]
- MBC [1]: Not reached
- MIC [1]: 100 ± 25 µM
- MBC [2]: Not reached
- MIC [2]: 200 µM
- MBC [3]: 25 µM
- MIC [3]: 25 µM
- MBC [4]: Not reached
- MIC [4]: 200 µM
- Death of leukocytes in the presence of 1 mM of compound (human leukocytes): 13 ± 1%
- concentration at which a weak toxic effect on leukocytes appears (human leukocytes): ~1000 µM
